Experimental data: PMC10541198, “Specific quinone reductase 2 inhibitors reduce metabolic burden and reverse Alzheimer’s disease phenotype in mice” (The Journal of Clinical Investigation, 2023)
Where “and” joins values, the source holds several entries; their conditions need not be identical. Equal values may be shown once.

System: 5xFAD mice
Assay: Delay fear conditioning in 5xFAD mice, YB-537 in drinking water
Assay type: in vivo, mouse
Parameters: Figure 8A, delay fear conditioning: unit not given here
Conditions: for freezing to conditioned context (individual mice) / freezing to conditioned cue (individual mice): in % (unit assumed); for Figure 8A, delay fear conditioning: individual animals
Protocol: We next aimed to test the effect of QR2 inhibition in AD model mice using YB-537, taking advantage of its extremely high specificity, solubility, and lack of toxicity. First, we determined YB-537 pharmacokinetics (PK) and oral bioavailability and assessed any acute observable toxicity in mice. […] We therefore opted to chronically deliver YB-537 to AD-model mice via their drinking water, so they may freely ingest the inhibitor at 50 mg/kg, with minimal intervention or trauma, for 1 month. We chose 9-month-old 5xFAD ([27]) male and female mice in double-blind experiments, so that well-progressed symptoms and pathologies would be present, to mimic clinically relevant cases in human patients ([35]), as has been previously described in this mouse model. Other than an improvement in nest quality ([36]) over time seen in animals receiving YB-537 (starting at age 8 months and ending at age 9 months), no changes to general physical parameters or wellbeing were observed over the 1 month of YB-537 ingestion (Supplemental Figure 6, A–J). Animals received the treatment for a week, and, on week 2, behavioral experiments commenced, including Morris water maze (MWM) and novel object recognition (NOR). These were carried out in parallel, with half of the animals (including both sexes and treatments) undergoing 1 of the paradigms in week 2, and the other in week 3. […] Since learning in this paradigm was slow, and performance was poor even following 6 days of training (using 4 learning trials a day), a test day was not carried out and instead only the learning rate was measured. […] Finally, during week 4, all the mice underwent DFC.
Since 1 month of chronic YB-537 ingestion rescued cognitive and pathological phenotypes more efficiently in female compared with male 5xFAD mice, we hypothesized that males may require a longer dosing regimen than females in order achieve a similar therapeutic effect. We therefore ran an additional experiment where we treated 5-month-old male 5xFAD mice with 50 mg/kg of YB-537 in drinking water for 4 months (starting at the age of 5 months, and ending at the age of 9 months, similar to the experiment described above), and compared cognitive performance to male 5xFAD and WT control mice of the same age not being treated with YB-537, using DFC in double-blind experiments.
DFC was done as previously described ([7]). Briefly, mice were given 2 minutes to explore the conditioning chambers, during which baseline freezing was measured. Then, a 20 second, 4 kHz, 80 dB tone was given, coterminating with the start of a 2 second, 0.5 mA foot-shock. This was repeated twice more in 1 minute intervals. Following the third and last bout, 1 minute was given before the animals were removed from the chambers. The next day, the animals were returned to the room under the same conditions and were placed back into the chambers, and freezing to the context was measured over the course of 5 minutes. The next day, the mice were brought to unfamiliar conditioning rooms and chambers. In this unfamiliar context, the protocol from the first day was repeated, except without the foot shocks. Freezing for the cue was recorded, starting from the sounding of the first tone. All measurements were taken with a Sentec stc-tb33usb-at camera, and analysis was done with Freeze Frame software (Actimetrics). […]
only, and kept there for 2 min. They were then placed inside a Habitest Operant Cage, within a Habitest Isolation Cubicle (Coulbourn), on a modular shock floor made of 16 m et al grids, connected to Precision Animal Shockers (Coulbourn) with illumination inside the cage coming from a 20 W bulb. Themice were given 2 min to explore, during which baseline freezing was measured. Then, a 20 s, 4 kHz, 80 dB tone was given, co- terminating with the start of a 2 s, 0.5 mA foot-shock, which was repeated a further two times, each having 1 min interval. Following the third, and last of these bouts, 1 min was given prior to the animals being removed from the chambers. […]

Cc1ccc(-c2cn3cccc(C)c3n2)cc1S(=O)(=O)N1CCNCC1 [YB-537]
freezing to conditioned context (individual mice) (5xFAD 1 month, both sexes): 26.3 and 36.9 and 45.3 and 29.6 and 49.0 and 37.4 and 41.6 and 45.9 and 41.9 and 40.7 and 24.2 and 16.0 and 23.6 and 22.5 and 44.6 and 33.3
freezing to conditioned cue (individual mice) (5xFAD 1 month, both sexes): 15.0 and 17.0 and 24.7 and 22.5 and 22.1 and 14.0 and 31.4 and 12.7 and 18.5 and 20.4 and 8.8 and 16.5 and 7.1 and 13.0 and 5.4 and 14.5
freezing to conditioned context (individual mice) (5xFAD 1 month, females): 26.3 and 36.9 and 16.0 and 23.6 and 22.5 and 44.6 and 33.3
freezing to conditioned cue (individual mice) (5xFAD 1 month, females): 15.0 and 17.0 and 16.5 and 7.1 and 13.0 and 5.4 and 14.5
freezing to conditioned context (individual mice) (5xFAD 1 month, males): 45.9 and 41.9 and 40.7 and 24.2 and 45.3 and 29.6 and 49.0 and 37.4 and 41.6
freezing to conditioned cue (individual mice) (5xFAD 1 month, males): 12.7 and 18.5 and 20.4 and 8.8 and 24.7 and 22.5 and 22.1 and 14.0 and 31.4
Figure 8A, delay fear conditioning (Baseline): 11.3 and 26.4 and 19.1 and 15.1 and 10.9 and 6.4 and 3.1 and 7.6 and 8.2
Figure 8A, delay fear conditioning (CS/US 1): 31.6 and 45.2 and 36.2 and 37.7 and 37.5 and 20.1 and 19.4 and 47.6 and 48.9
Figure 8A, delay fear conditioning (CS/US 2): 48.3 and 58.0 and 52.7 and 47.1 and 45.6 and 18.2 and 23.2 and 57.0 and 60.3
Figure 8A, delay fear conditioning (CS/US 3): 62.5 and 61.5 and 55.2 and 55.7 and 52.0 and 17.2 and 31.2 and 65.3 and 57.9
learning during delay-fear conditioning (male 5xFAD, 50 mg/kg in drinking water 4 months): normal learning
freezing to conditioned context (individual mice) (male 5xFAD, 4 months): 24.6 and 26.8 and 50.3 and 22.2 and 32.3 and 63.4 and 63.3 and 75.1 and 38.8
freezing to conditioned cue (individual mice) (male 5xFAD, 4 months): 44.3 and 66.5 and 54.4 and 28.0 and 38.6 and 64.3 and 47.4 and 65.9 and 58.0
learning during delay fear conditioning (male and female 5xFAD, 1 month in drinking water): no difference observed across groups
